Measurements reported in patent publication US8569336B2, “Compounds for the treatment of inflammatory disorders” (priority 2008, dated 2013).
Like-named read-outs stand apart in the source and are kept apart here.

How the values were obtained:
[1] = biological target: T1, purified catalytic domain of recombinant human TACE (rhTACEc) (Homo sapiens, UniProt P78536, N452Q/S266A); assay: TACE kinetic assay: cleavage of internally quenched peptide substrate TNF-FRET 2 (Ki); format: biochemical; settings: TNF-FRET 2 substrate
T1 construct: 6xHis (C); made in house; host or cells: baculovirus/Hi5 insect cells

[2] = test system: TNF-α production from human whole blood; assay: Inhibition of TNF-α production from human whole blood (hWBA), LPS stimulated, ELISA; format: cell-based; settings: Homo sapiens, human whole blood diluted 1:1, LPS stimulated, TNF-α by ELISA; read-out: hWBA (IC50)

T1 sequence (P78536 215-477 S266A/N452Q): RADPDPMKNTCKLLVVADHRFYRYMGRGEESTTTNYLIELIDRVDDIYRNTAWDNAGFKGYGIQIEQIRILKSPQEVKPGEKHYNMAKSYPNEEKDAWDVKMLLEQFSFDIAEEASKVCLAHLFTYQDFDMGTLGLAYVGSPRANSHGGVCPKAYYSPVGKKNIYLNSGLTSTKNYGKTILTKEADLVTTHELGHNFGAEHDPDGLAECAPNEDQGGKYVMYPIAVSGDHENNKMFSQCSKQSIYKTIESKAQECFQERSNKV

Ki ([1]; read-out: Ki) [µM]	IC50 [2] [µM]	SMILES	Ki ([1]; Ki) [µM]
0.00114	0.504	COc1ccc2c(c1)C(=O)N(C[C@@]1(c3cc4c(C)nc(O)c(C(N)=O)c4o3)NC(=O)NC1=O)C2 [Compound 2435]	–
0.00226	1.6	COc1ccc2c(c1)C(=O)N(C[C@@]1(c3cc4c(C)ncc(C(=O)O)c4o3)NC(=O)NC1=O)C2 [Compound 2446]	–
0.00054	0.554	CNC(=O)c1cnc(C)c2cc([C@]3(CN4Cc5ccc(OC)cc5C4=O)NC(=O)NC3=O)oc12 [Compound 2447]	–
0.0008	0.839	COc1ccc2c(c1)C(=O)N(C[C@@]1(c3cc4c(C(C)=O)nccc4o3)NC(=O)NC1=O)C2 [Compound 2448]	–
0.00041	0.987	COc1ccc2c(c1)C(=O)N(C[C@@]1(c3cc4cc(C=O)ccc4o3)NC(=O)NC1=O)C2 [Compound 2451]	–
0.00067	0.35	COc1ccc2c(c1)C(=O)N(C[C@@]1(c3cc4cc(C(=NO)N5CCCN(C)CC5)ccc4o3)NC(=O)NC1=O)C2 [Compound 2452]	–
0.00051	0.393	CCN1CCN(C(=NO)c2ccc3oc([C@]4(CN5Cc6ccc(OC)cc6C5=O)NC(=O)NC4=O)cc3c2)CC1 [Compound 2453]	–
0.00049	0.76	COc1ccc2c(c1)C(=O)N(C[C@@]1(c3cc4cc(C(=NO)N5CCOCC5)ccc4o3)NC(=O)NC1=O)C2 [Compound 2454]	–
0.00076	1.01	COc1ccc2c(c1)C(=O)N(C[C@@]1(c3ccc(-c4ccc(C(=NO)N5CCN(C)CC5)cc4)cc3)NC(=O)NC1=O)C2 [Compound 2456]	–
0.000518	0.841	COC(=O)c1cnc2cc([C@]3(CN4Cc5ccc(OC)cc5C4=O)NC(=O)NC3=O)oc2c1 [Compound 2458]	–
0.000556	0.321	COc1ccc2c(c1)C(=O)N(C[C@@]1(c3cc4ncc(C(=O)NC5CC5)cc4o3)NC(=O)NC1=O)C2 [Compound 2460]	–
0.00013	0.339	COC(=O)c1ccc2oc([C@]3(CN4Cc5ccc(OC)cc5C4=O)NC(=O)NC3=O)cc2n1 [Compound 2463]	–
0.000115	0.367	COc1ccc2c(c1)C(=O)N(C[C@@]1(c3cc4nc(C(=O)NC5CC5)ccc4o3)NC(=O)NC1=O)C2 [Compound 2464]	–
0.000867	0.567	COc1ccc2c(c1)C(=O)N(C[C@@]1(c3cc4nc(C(=O)NCCN(C)C)ccc4o3)NC(=O)NC1=O)C2 [Compound 2466]	–
0.00072	0.657	COCCNC(=O)c1cnc2cc([C@]3(CN4Cc5ccc(OC)cc5C4=O)NC(=O)NC3=O)oc2c1 [Compound 2467]	–
0.00059	0.546	COc1ccc2c(c1)C(=O)N(C[C@@]1(c3cc4ncc(C(=NO)N5CCN(c6cnccn6)CC5)cc4o3)NC(=O)NC1=O)C2 [Compound 2469]	–

Ki ([1]; read-out: Ki) [µM]	IC50 [2] [µM]	SMILES	Ki ([1]; Ki) [µM]
0.000779	3.66	COc1ccc2c(c1)C(=O)N(C[C@@]1(c3cc4nc(-c5cncc(C#N)c5)ccc4o3)NC(=O)NC1=O)C2 [Compound 2471]	–
0.00037	0.848	COc1ccc2c(c1)C(=O)N(C[C@@]1(c3cc4cc(C#N)ccc4o3)NC(=O)NC1=O)C2 [Compound 2476]	–
0.00141	3.48	COc1ccc2c(c1)C(=O)N(C[C@@]1(c3ccc(C#N)cc3)NC(=O)NC1=O)C2 [Compound 2477]	–
0.00035	0.6	COc1ccc2c(c1)C(=O)N(C[C@@]1(c3cc4cc(S(N)(=O)=O)ccc4o3)NC(=O)NC1=O)C2 [Compound 2478]	–
0.00036	2.08	COc1ccc2c(c1)C(=O)N(C[C@@]1(c3cc4cc(C)c(S(N)(=O)=O)cc4o3)NC(=O)NC1=O)C2 [Compound 2479]	–
0.00067	0.304	COc1ccc2c(c1)C(=O)N(C[C@@]1(c3cc4cc(S(=O)(=O)NCCN(C)C)ccc4o3)NC(=O)NC1=O)C2 [Compound 2482]	–
0.00076	1.99	CCNC(=O)NCc1ccc2oc([C@]3(CN4Cc5ccc(OC)cc5C4=O)NC(=O)NC3=O)cc2c1 [Compound 2485]	–
0.00049	1.23	COc1ccc2c(c1)C(=O)N(C[C@@]1(c3cc4cc(CNC(=O)N(C)C)ccc4o3)NC(=O)NC1=O)C2 [Compound 2486]	–
0.0008	0.321	COc1ccc2c(c1)C(=O)N(C[C@@]1(c3cc4cc(/C(=N\O)N5CC[C@H](N(C)C)C5)ccc4o3)NC(=O)NC1=O)C2 [Compound 2488]	–
0.00049	0.349	O=C1NC(=O)[C@](CN2Cc3ccc(OCC4CC4)c(F)c3C2=O)(c2cc3cc4c(c(F)c3o2)C(=O)NC4)N1 [Compound 2493]	–
0.00125	2.25	O=C1NC(=O)[C@](CN2CCc3ccsc3C2=O)(c2cc3ncccc3o2)N1 [Compound 2494]	–
0.00071	0.65	CN(C)C1CCN(c2ccc3oc(C4(CN5CCc6ccsc6C5=O)NC(=O)NC4=O)cc3n2)CC1 (stereo not shown) [Compound 2495]	–
0.00066	0.314	CCN1CCN(c2ccc3oc(C4(CN5CCc6ccsc6C5=O)NC(=O)NC4=O)cc3n2)CC1 (stereo not shown) [Compound 2496]	–
0.00121	0.166	COc1ccc2c(c1F)C(=O)N(C[C@@]1(c3cc4ccc5c(c4o3)CNC5=O)NC(=O)NC1=O)C2 [Compound 2498]	–
0.00052	0.282	COc1ccc2c(c1F)C(=O)N(C[C@@]1(c3cc4cc5c(c(F)c4o3)CNC5=O)NC(=O)NC1=O)C2 [Compound 2500]	–

Further lines, the molecule ahead of its results:

SMILES	Ki ([1]; read-out: Ki) [µM]	IC50 [2] [µM]	Ki ([1]; Ki) [µM]
CCOC(=O)c1ccc2cc([C@]3(CN4Cc5ccc(OC)cc5C4=O)NC(=O)NC3=O)oc2c1 [Compound 2409]	0.00033	1.87	–
COc1ccc2c(c1)C(=O)N(C[C@@]1(c3cc4ccc(C(=O)O)cc4o3)NC(=O)NC1=O)C2 [Compound 2410]	0.0003	0.591	–
COc1ccc2c(c1)C(=O)N(C[C@@]1(c3cc4ccc(C(=O)NCC5CCN(C)CC5)cc4o3)NC(=O)NC1=O)C2 [Compound 2411]	0.00114	0.348	–
COCCNC(=O)c1ccc2cc([C@]3(CN4Cc5ccc(OC)cc5C4=O)NC(=O)NC3=O)oc2c1 [Compound 2413]	0.0006	0.3	–
COc1ccc2c(c1)C(=O)N(C[C@@]1(c3cc4ccc(C(=O)N(C)C)cc4o3)NC(=O)NC1=O)C2 [Compound 2414]	0.00041	0.99	–
COc1ccc2c(c1)C(=O)N(C[C@@]1(c3cc4ccc(C(=O)NC[C@H](C)O)cc4o3)NC(=O)NC1=O)C2 [Compound 2415]	0.00051	0.452	–
COc1ccc2c(c1)C(=O)N(C[C@@]1(c3cc4ccc(C(=O)NC[C@@H](C)O)cc4o3)NC(=O)NC1=O)C2 [Compound 2416]	0.00056	0.891	–
COc1ccc2c(c1)C(=O)N(C[C@@]1(c3cc4ccc(C(=O)N[C@@H](C)CO)cc4o3)NC(=O)NC1=O)C2 [Compound 2417]	0.00064	0.508	–
COc1ccc2c(c1)C(=O)N(C[C@@]1(c3cc4ccc(C(=O)NCCN5CCCC5)cc4o3)NC(=O)NC1=O)C2 [Compound 2418]	0.00076	0.265	–
CCN(CC)CCNC(=O)c1ccc2cc([C@]3(CN4Cc5ccc(OC)cc5C4=O)NC(=O)NC3=O)oc2c1 [Compound 2419]	0.00079	0.332	–
COc1ccc2c(c1)C(=O)N(C[C@@]1(c3cc4cc(/C=N/O)ccc4o3)NC(=O)NC1=O)C2 [Compound 2420]	0.0004	0.328	–
COc1ccc2c(c1)C(=O)N(C[C@@]1(c3cc4ccc(C(=O)N5CCNC(=O)C5)cc4o3)NC(=O)NC1=O)C2 [Compound 2422]	–	0.519	0.00068
COc1ccc2c(c1)C(=O)N(C[C@@]1(c3cc4ccc(C(=O)N5CCN(C)CC5)cc4o3)NC(=O)NC1=O)C2 [Compound 2423]	0.00101	1.09	–
COc1ccc2c(c1)C(=O)N(C[C@@]1(c3cc4cc(C(N)=O)c(C)cc4o3)NC(=O)NC1=O)C2 [Compound 2425]	0.00051	0.992	–
COc1ccc2c(c1)C(=O)N(C[C@@]1(c3cc4cc(C(=O)N5CCN(C)CC5)c(C)cc4o3)NC(=O)NC1=O)C2 [Compound 2427]	0.00142	0.56	–
COc1ccc2c(c1)C(=O)N(C[C@@]1(c3cc4cc(C(=O)NCCN(C)C)ccc4o3)NC(=O)NC1=O)C2 [Compound 2428]	0.00075	0.115	–
COc1ccc2c(c1)C(=O)N(C[C@@]1(c3cc4c(-c5cccc(C#N)c5)nccc4o3)NC(=O)NC1=O)C2 [Compound 2430]	0.00072	10	–
COc1ccc2c(c1)C(=O)N(C[C@@]1(c3cc4cc(-c5cccc(C#N)c5)ncc4o3)NC(=O)NC1=O)C2 [Compound 2432]	0.00092	1.72	–
COc1ccc2c(c1)C(=O)N(C[C@@]1(c3cc4cc(C(C)=O)cnc4o3)NC(=O)NC1=O)C2 [Compound 2433]	0.000731	0.712	–
CCOC(=O)c1c(O)nc(C)c2cc([C@]3(CN4Cc5ccc(OC)cc5C4=O)NC(=O)NC3=O)oc12 [Compound 2434]	0.00132	0.174	–
COc1ccc2c(c1)C(=O)N(C[C@@]1(c3cc4c(C)nc(O)c(C(=O)O)c4o3)NC(=O)NC1=O)C2 [Compound 2436]	–	2.39	0.00241
COc1ccc2c(c1)C(=O)N(C[C@@]1(c3cc4ncc(C(N)=O)cc4o3)NC(=O)NC1=O)C2 [Compound 2459]	–	0.173	0.000367
CCN1CCN(C(=NO)c2cnc3cc([C@]4(CN5Cc6ccc(OC)cc6C5=O)NC(=O)NC4=O)oc3c2)CC1 [Compound 2468]	–	0.342	0.00144
COc1ccc2c(c1)C(=O)N(C[C@@]1(c3cc4c(o3)CCN(CC(N)=O)C4)NC(=O)NC1=O)C2 [Compound 2483]	–	0.252	0.0007
CCOC(=O)NCc1ccc2oc([C@]3(CN4Cc5ccc(OC)cc5C4=O)NC(=O)NC3=O)cc2c1 [Compound 2484]	–	1.69	0.00049
